From PMC3216401 (Antiviral research, 2011)
“And” between values parts separate entries of the source, which are not always exact repeats. Equal values may be shown once. Read-outs that look alike come from different tables or passages of the source.

Assays:
[1] = system: influenza A/CA/07/2009 (H1N1); experiment: microbe, parasite or virus in culture; format: cell-based; conditions: H1N1, MDCK, read-out: IC90, VYR Assay
[2] = system: Influenza A/Sydney/05/97 (H3N2); experiment: microbe, parasite or virus in culture; format: cell-based; conditions: H3N2, MDCK, read-out: IC90, VYR Assay
[3] = system: A/Brisbane/10/2007 (H3N2); experiment: microbe, parasite or virus in culture; format: cell-based; conditions: Influenza A virus, H3N2, MDCK, read-out: IC90, VYR Assay
[4] = system: A/Hong Kong/213/2003H (A/Hong Kong/213/2003 × Ann Arbor/6/60 hybrid); experiment: microbe, parasite or virus in culture; format: cell-based; conditions: Influenza A virus, MDCK, read-out: IC90, VYR Assay
A/Gull/PA/4175/83 (H5N1) [5] = experiment: microbe, parasite or virus in culture; format: cell-based; conditions: Influenza A virus, H5N1, MDCK, read-out: IC90, VYR Assay
A/Duck/MN/1525/81 (H5N1) [6] = experiment: microbe, parasite or virus in culture; format: cell-based; conditions: Influenza A virus, H5N1, MDCK, read-out: IC90, VYR Assay
B/Malaysia/2506/2004 [7] = experiment: microbe, parasite or virus in culture; format: cell-based; conditions: Influenza B virus, MDCK, read-out: IC90, VYR Assay
influenza viruses = experiment: microbe, parasite or virus in culture; format: cell-based, influenza A and B viruses; conditions: Influenza A virus
[8] = system: influenza A/CA/07/2009 (H1N1)
[9] = system: influenza A/CA/07/2009 (H1N1); remark: listed apart in the source
[10] = system: Influenza A/Sydney/05/97 (H3N2)
[11] = system: Influenza A/Sydney/05/97 (H3N2); remark: listed apart in the source
[12] = system: A/Brisbane/10/2007 (H3N2)
[13] = system: A/Brisbane/10/2007 (H3N2); remark: listed apart in the source
[14] = system: A/Hong Kong/213/2003H (A/Hong Kong/213/2003 × Ann Arbor/6/60 hybrid)
[15] = system: A/Vietnam/1203/04H (A/Vietnam/1203/04 × Ann Arbor/6/60 hybrid)
A/Gull/PA/4175/83 (H5N1) [16] = system: A/Gull/PA/4175/83 (H5N1)
A/Gull/PA/4175/83 (H5N1) [17] = system: A/Gull/PA/4175/83 (H5N1); remark: listed apart in the source
A/Duck/MN/1525/81 (H5N1) [18] = system: A/Duck/MN/1525/81 (H5N1)
B/Malaysia/2506/2004 [19] = system: B/Malaysia/2506/2004
B/Malaysia/2506/2004 [20] = system: B/Malaysia/2506/2004; remark: listed apart in the source
[21] = system: influenza A/Vietnam/1203/2004 H5N1 virus; conditions: in vivo
in vitro = conditions: dog
[22] = system: influenza A/CA/07/2009 (H1N1); experiment: microbe, parasite or virus in culture; conditions: H1N1, MDCK, read-out: IC50, Neutral Red Uptake Assay
[23] = system: Influenza A/Sydney/05/97 (H3N2); experiment: microbe, parasite or virus in culture; conditions: H3N2, MDCK, read-out: IC50, Visual Assay
[24] = system: Influenza A/Sydney/05/97 (H3N2); experiment: microbe, parasite or virus in culture; conditions: H3N2, MDCK, read-out: IC50, Neutral Red Uptake Assay
[25] = system: A/Hong Kong/213/2003H (A/Hong Kong/213/2003 × Ann Arbor/6/60 hybrid); experiment: microbe, parasite or virus in culture; conditions: Influenza A virus, H1N1|H5N1, MDCK, read-out: IC50, Visual Assay
[26] = system: A/Hong Kong/213/2003H (A/Hong Kong/213/2003 × Ann Arbor/6/60 hybrid); experiment: microbe, parasite or virus in culture; conditions: Influenza A virus, H1N1|H5N1, MDCK, read-out: IC50, Neutral Red Uptake Assay
[27] = system: A/Vietnam/1203/04H (A/Vietnam/1203/04 × Ann Arbor/6/60 hybrid); experiment: microbe, parasite or virus in culture; conditions: Influenza A virus, H1N1|H5N1, MDCK, read-out: IC50, Visual Assay
[28] = system: A/Vietnam/1203/04H (A/Vietnam/1203/04 × Ann Arbor/6/60 hybrid); experiment: microbe, parasite or virus in culture; conditions: Influenza A virus, H1N1|H5N1, MDCK, read-out: IC50, Neutral Red Uptake Assay
A/Gull/PA/4175/83 (H5N1) [29] = experiment: microbe, parasite or virus in culture; conditions: Influenza A virus, H5N1, MDCK, read-out: IC50, Neutral Red Uptake Assay
B/Malaysia/2506/2004 [30] = experiment: microbe, parasite or virus in culture; conditions: Influenza B virus, MDCK, read-out: IC50, Visual Assay
B/Malaysia/2506/2004 [31] = experiment: microbe, parasite or virus in culture; conditions: Influenza B virus, MDCK, read-out: IC50, Neutral Red Uptake Assay
B/Florida/4/2006 [32] = experiment: microbe, parasite or virus in culture; conditions: Influenza B virus, MDCK, read-out: IC50, Visual Assay
B/Florida/4/2006 [33] = experiment: microbe, parasite or virus in culture; conditions: Influenza B virus, MDCK, read-out: IC50, Neutral Red Uptake Assay
[34] = MDCK, read-out: IC90 values, range over viruses of Table 3

With `Nc1ccn([C@@H]2O[C@H](CO)[C@@H](O)C2(F)F)c(=O)n1` [2’-deoxy-2’, 2’-difluorocytidine, reference compound] the IC90 [1] was 130 nM, the IC90 [2] was 1600 nM and the IC90 [3] was 140 nM. The IC90 [4] was 40 nM, the IC90 (A/Gull/PA/4175/83 (H5N1) [5]) was 130 nM and the IC90 (A/Duck/MN/1525/81 (H5N1) [6]) was 250 nM. For the same compound, the IC90 (B/Malaysia/2506/2004 [7]) was 110 nM, the IC90 (influenza viruses; [34]) was 30 to 2100 nM and the “SI (CC50/IC50), Visual Assay” value [8] was 11.7. For the same compound, the “SI (CC50/IC50), Neutral Red Uptake Assay” value [9] was 6.9, the “SI (CC50/IC50), Visual Assay” value [10] was 67 and the “SI (CC50/IC50), Neutral Red Uptake Assay” value [11] was 5.7. For the same compound, the “SI (CC50/IC50), Visual Assay” value [12] was 43, the “SI (CC50/IC50), Neutral Red Uptake Assay” value [13] was 8.1 and the “SI (CC50/IC50), Neutral Red Uptake Assay” value [14] was over 1538. The “SI (CC50/IC50), Visual Assay” value [15] was over 1000, the “SI (CC50/IC50), Visual Assay” value (A/Gull/PA/4175/83 (H5N1) [16]) was over 480 and the “SI (CC50/IC50), Neutral Red Uptake Assay” value (A/Gull/PA/4175/83 (H5N1) [17]) was 370. The “SI (CC50/IC50), Neutral Red Uptake Assay” value (A/Duck/MN/1525/81 (H5N1) [18]) was over 880, the “SI (CC50/IC50), Visual Assay” value (B/Malaysia/2506/2004 [19]) was over 3100 and the “SI (CC50/IC50), Neutral Red Uptake Assay” value (B/Malaysia/2506/2004 [20]) was over 1500. For the same compound, the “Inhibition in the H5N1 mouse model” value [21] was “not inhibitory”, the “Toxicity in the H5N1 mouse model” value [21] was “very toxic” and the “Protection against lethal challenge” value ([21]; mouse) was “not significantly effective”. It also gave a CC50 (in vitro; CC50 values, range, visual assay) of 2100 to 530000 nM, an IC50 [22] of 160 nM and an IC50 [23] of 180 nM. It also gave an IC50 [24] of 1200 nM, an IC50 [25] of under 32 nM and an IC50 [26] of 65 nM. The IC50 [27] was under 320 nM, the IC50 [28] was under 320 nM and the IC50 (A/Gull/PA/4175/83 (H5N1) [29]) was 270 nM. It also gave an IC50 (B/Malaysia/2506/2004 [30]) of under 32 nM, an IC50 (B/Malaysia/2506/2004 [31]) of 68 nM and an IC50 (B/Florida/4/2006 [32]) of under 320 nM. It also gave an IC50 (B/Florida/4/2006 [33]) of under 320 nM.
`Nc1ccn([C@@H]2O[C@H](CO)[C@@H](O)[C@H]2F)c(=O)n1` [2’-deoxy-2’-fluorocytidine, 2'-deoxy-2'-fluorocytidine] showed an IC90 [1] of 4600 nM, an IC90 [2] of 6700 nM and an IC90 [3] of 6800 nM. The IC90 [4] was 5100 nM, the IC90 (A/Gull/PA/4175/83 (H5N1) [5]) was 6100 nM and the IC90 (A/Duck/MN/1525/81 (H5N1) [6]) was 5900 nM. For the same compound, the IC90 (B/Malaysia/2506/2004 [7]) was 7300 nM, the IC90 (influenza viruses; H1N1|H3N2, MDCK, read-out: IC90 values, range for the H3N2 and H1N1 viruses tested) was 4600 to 6800 nM and the IC90 (influenza viruses; H1N1|H5N1, MDCK, read-out: IC90 values, range for the hybrid H1N1 viruses expressing the H5N1 HA and NA proteins) was 2900 to 5100 nM. The IC90 (influenza viruses; [34]) was 1200 to 7300 nM, the “SI (CC50/IC50), Visual Assay” value [8] was over 31 and the “SI (CC50/IC50), Neutral Red Uptake Assay” value [9] was over 24. The “SI (CC50/IC50), Visual Assay” value [10] was over 170, the “SI (CC50/IC50), Neutral Red Uptake Assay” value [11] was over 40 and the “SI (CC50/IC50), Visual Assay” value [12] was over 100. For the same compound, the “SI (CC50/IC50), Neutral Red Uptake Assay” value [13] was over 7.1, the “SI (CC50/IC50), Neutral Red Uptake Assay” value [14] was over 14 and the “SI (CC50/IC50), Visual Assay” value [15] was over 48. The “SI (CC50/IC50), Visual Assay” value (A/Gull/PA/4175/83 (H5N1) [16]) was over 110, the “SI (CC50/IC50), Neutral Red Uptake Assay” value (A/Gull/PA/4175/83 (H5N1) [17]) was over 91 and the “SI (CC50/IC50), Neutral Red Uptake Assay” value (A/Duck/MN/1525/81 (H5N1) [18]) was over 480. The “SI (CC50/IC50), Visual Assay” value (B/Malaysia/2506/2004 [19]) was over 53, the “SI (CC50/IC50), Neutral Red Uptake Assay” value (B/Malaysia/2506/2004 [20]) was over 24 and the “Maximum tolerated effective dose” value ([21]; female, BALB/c, mouse, ip) was 60 mg/kg/day. The “Lung Score ± SD” value ([21]; mouse) was 0.4 ± 0.25 and 0.2 ± 0.27, the “Mice protected from lethal effects” value ([21]; mouse) was 60% and the “Protection from death, i.p.” value ([21]; mouse) was “partially, but significantly protected from death”. The “Protection from mortality, per os” value ([21]; mouse) was “not protected from mortality”, the “Virus Lung Titers ± SD” value ([21]; mouse) was 3.60 ± 1.303 Log10/g and 4.01 ± 0.713 Log10/g and the CC50 (in vitro; CC50, Visual Assay) was over 100000 nM. For the same compound, the IC50 [22] was 4100 nM, the IC50 [23] was 590 nM and the IC50 [24] was 2500 nM. For the same compound, the IC50 [25] was 1300 nM, the IC50 [26] was 7200 nM and the IC50 [27] was 2100 nM. It also gave an IC50 [28] of 3400 nM, an IC50 (A/Gull/PA/4175/83 (H5N1) [29]) of 1100 nM and an IC50 (B/Malaysia/2506/2004 [30]) of 1900 nM. The IC50 (B/Malaysia/2506/2004 [31]) was 4100 nM, the IC50 (B/Florida/4/2006 [32]) was 1000 nM and the IC50 (B/Florida/4/2006 [33]) was 1400 nM.
